{
  "source": "patent US20160198705A1",
  "about": "“APPLICATION OF BISPHENOL SALT IN PREPARING DISINFECTANT USED FOR STERILIZATION OR FORMALDEHYDE REMOVAL” (NINGBO YUCHEN ENVIROCLEAN TECH CO., LTD., priority 2013, published 2016)",
  "key": {"Staphylococcus aureus [1]": {"system": "Staphylococcus aureus", "experiment": "Kirby-Bauer diffusion detection of sterilization capability (zone without bacterial growth around the filter paper)", "type": "cell-based", "settings": "for sterilization effect without oxygen ventilation (diameter, mm): pH 10, no ventilation of oxygen"}, "Staphylococcus aureus [2]": {"system": "Staphylococcus aureus", "experiment": "Kirby-Bauer diffusion detection of sterilization capability (zone without bacterial growth around the filter paper)", "type": "cell-based", "description": "In catalyst screening, Staphylococcus aureus was used as the microorganisms, and a trypsin soybean agar was used as a culture medium. The material powder to be screened was prepared into a homogeneous mixture solution by pure water in a 5% weight/volume ratio (i.e., 5 g powder/100 mL water) (in rare cases of low solubility, firstly dissolved with a small amount of glycerol, then diluted with pure water), then immersed with a neutral precise filtration filter paper of 5 mm diameter for about 10 seconds, then placed into a Kirby-Bauer diffusion detection plate. A Kirby-Bauer diffusion detection plate was placed in a sealed glass cover, and the air was provided into the glass cover at a speed of about 10 liters per minute. The sterilizing capability of the catalyst was measured by the diameter of the zone without bacterial growth around the filter paper.\nA variety of bisphenol salts were respectively prepared into a water solution with a mass concentration being 5%, and the pH was controlled to 10. The sterilization capability was still detected by Kirby-Bauer diffusion detection method in which Staphylococcus aureus was […] used as the microorganisms, respectively including two cases of no ventilation of oxygen and ventilation of oxygen. When oxygen was ventilated, the condition for oxygen ventilation was the same, the temperature was room temperature (25[…]) and 37[…].\nThe sterilization capability was detected by Kirby-Bauer diffusion detection method in which Staphylococcus aureus was still used as the microorganisms, and the condition for oxygen ventilation was identical, the temperature was room temperature (25[…]) and 37[…].\nOrtho-bisphenol potassium was respectively prepared to form water solutions with a concentration of 5% and pH value of 6, 7, 8, 8.5, 9, 9.5, 10, 10.5, 11, 11.5, 12. The sterilization capability was detected by Kirby-Bauer diffusion detection method in which Staphylococcus aureus was still used as the microorganisms, the condition for oxygen ventilation was identical, the temperature was room temperature (25[…]) and 37[…]."}, "[3]": {"settings": "5% water solution, pH 10, oxygen ventilation"}, "[4]": {"settings": "5% weight/volume in pure water, air provided at about 10 liters per minute"}, "[5]": {"settings": "concentration 1.0%, pH 10, oxygen ventilation"}, "[6]": {"settings": "concentration 5%, pH 10, oxygen ventilation"}, "[7]": {"settings": "concentration 10%, pH 10, oxygen ventilation"}, "[8]": {"settings": "pH 6, concentration 5%, oxygen ventilation"}, "[9]": {"settings": "pH 8.5, concentration 5%, oxygen ventilation"}, "[10]": {"settings": "pH 9, concentration 5%, oxygen ventilation"}, "[11]": {"settings": "pH 10, concentration 5%, oxygen ventilation"}, "[12]": {"settings": "concentration 0.5%, pH 10, oxygen ventilation"}, "[13]": {"settings": "concentration 2.0%, pH 10, oxygen ventilation"}, "[14]": {"settings": "concentration 15%, pH 10, oxygen ventilation"}, "[15]": {"settings": "concentration 20%, pH 10, oxygen ventilation"}, "[16]": {"settings": "pH 7, concentration 5%, oxygen ventilation"}, "[17]": {"settings": "pH 8, concentration 5%, oxygen ventilation"}, "[18]": {"settings": "pH 9.5, concentration 5%, oxygen ventilation"}, "[19]": {"settings": "pH 10.5, concentration 5%, oxygen ventilation"}, "[20]": {"settings": "pH 11, concentration 5%, oxygen ventilation"}, "[21]": {"settings": "pH 11.5, concentration 5%, oxygen ventilation"}, "[22]": {"settings": "pH 12, concentration 5%, oxygen ventilation"}},
  "data": [
    {"smiles": "[K+].[K+].[O-]c1cccc(-c2cccc([O-])c2)c1", "values": [
      {"measurement": "sterilization effect without oxygen ventilation (diameter, mm)", "setting": "Staphylococcus aureus [1]; 5% water solution", "result": 2, "unit": "mm"},
      {"measurement": "sterilization effect at 25[…] (diameter, mm)", "setting": "Staphylococcus aureus [1]; [3]", "result": 20, "unit": "mm"},
      {"measurement": "sterilization effect at 37[…] (diameter, mm)", "setting": "Staphylococcus aureus [1]; [3]", "result": 19, "unit": "mm"}
    ]},
    {"smiles": "O=C(O)c1ccc(-c2ccccc2[O-])c([O-])c1.[K+].[K+]", "values": [
      {"measurement": "sterilization effect without oxygen ventilation (diameter, mm)", "setting": "Staphylococcus aureus [1]; 5% water solution", "result": 2, "unit": "mm"},
      {"measurement": "sterilization effect at 25[…] (diameter, mm)", "setting": "Staphylococcus aureus [1]; [3]", "result": 19, "unit": "mm"},
      {"measurement": "sterilization effect at 37[…] (diameter, mm)", "setting": "Staphylococcus aureus [1]; [3]", "result": 19, "unit": "mm"}
    ]},
    {"smiles": "[K+].[K+].[O-]c1ccccc1-c1cc(Cl)ccc1[O-]", "values": [
      {"measurement": "sterilization effect without oxygen ventilation (diameter, mm)", "setting": "Staphylococcus aureus [1]; 5% water solution", "result": 3, "unit": "mm"},
      {"measurement": "sterilization effect at 25[…] (diameter, mm)", "setting": "Staphylococcus aureus [1]; [3]", "result": 19, "unit": "mm"},
      {"measurement": "sterilization effect at 37[…] (diameter, mm)", "setting": "Staphylococcus aureus [1]; [3]", "result": 19, "unit": "mm"}
    ]},
    {"smiles": "[Na+].[Na+].[O-]c1ccccc1Oc1ccccc1[O-]", "values": [
      {"measurement": "sterilization effect without oxygen ventilation (diameter, mm)", "setting": "Staphylococcus aureus [1]; 5% water solution", "result": 5, "unit": "mm"},
      {"measurement": "sterilization effect at 25[…] (diameter, mm)", "setting": "Staphylococcus aureus [1]; [3]", "result": 17, "unit": "mm"},
      {"measurement": "sterilization effect at 37[…] (diameter, mm)", "setting": "Staphylococcus aureus [1]; [3]", "result": 19, "unit": "mm"}
    ]},
    {"smiles": "[K+].[K+].[O-]c1cccc(Oc2cccc([O-])c2)c1", "values": [
      {"measurement": "sterilization effect without oxygen ventilation (diameter, mm)", "setting": "Staphylococcus aureus [1]; 5% water solution", "result": 6, "unit": "mm"},
      {"measurement": "sterilization effect at 25[…] (diameter, mm)", "setting": "Staphylococcus aureus [1]; [3]", "result": 16, "unit": "mm"},
      {"measurement": "sterilization effect at 37[…] (diameter, mm)", "setting": "Staphylococcus aureus [1]; [3]", "result": 18, "unit": "mm"}
    ]},
    {"smiles": "[Na+].[Na+].[O-]c1ccccc1-c1ccccc1[O-]", "note": "[2,2′-ortho-bisphenol sodium]", "values": [
      {"measurement": "inhibition zone diameter", "setting": "Staphylococcus aureus [1]; [4]", "result": 15, "unit": "mm"}
    ]},
    {"smiles": "[K+].[K+].[O-]c1ccccc1-c1ccccc1[O-]", "note": "[ortho-bisphenol potassium]", "values": [
      {"measurement": "sterilization effect at 25[…] (diameter, mm)", "setting": "Staphylococcus aureus [2]; [5]", "result": 11, "unit": "mm"},
      {"measurement": "sterilization effect at 37[…] (diameter, mm)", "setting": "Staphylococcus aureus [2]; [6]", "result": 19, "unit": "mm"},
      {"measurement": "sterilization effect at 25[…] (diameter, mm)", "setting": "Staphylococcus aureus [2]; [7]", "result": 20, "unit": "mm"},
      {"measurement": "sterilization effect at 25[…] (diameter, mm)", "setting": "Staphylococcus aureus [2]; [8]", "result": 5, "unit": "mm"},
      {"measurement": "sterilization effect at 37[…] (diameter, mm)", "setting": "Staphylococcus aureus [2]; [9]", "result": 14, "unit": "mm"},
      {"measurement": "sterilization effect at 25[…] (diameter, mm)", "setting": "Staphylococcus aureus [2]; [10]", "result": 15, "unit": "mm"},
      {"measurement": "sterilization effect at 25[…] (diameter, mm)", "setting": "Staphylococcus aureus [2]; [11]", "result": 19, "unit": "mm"},
      {"measurement": "sterilization effect at 37[…] (diameter, mm)", "setting": "Staphylococcus aureus [2]; [11]", "result": 20, "unit": "mm"},
      {"measurement": "sterilization effect without oxygen ventilation (diameter, mm)", "setting": "Staphylococcus aureus [1]; 5% water solution", "result": 3, "unit": "mm"},
      {"measurement": "sterilization effect at 25[…] (diameter, mm)", "setting": "Staphylococcus aureus [1]; [3]", "result": 18, "unit": "mm"},
      {"measurement": "sterilization effect at 37[…] (diameter, mm)", "setting": "Staphylococcus aureus [1]; [3]", "result": 19, "unit": "mm"},
      {"measurement": "sterilization effect at 25[…] (diameter, mm)", "setting": "Staphylococcus aureus [1]; [12]", "result": 8, "unit": "mm"},
      {"measurement": "sterilization effect at 37[…] (diameter, mm)", "setting": "Staphylococcus aureus [1]; [12]", "result": 9, "unit": "mm"},
      {"measurement": "sterilization effect at 37[…] (diameter, mm)", "setting": "Staphylococcus aureus [1]; [5]", "result": 10, "unit": "mm"},
      {"measurement": "sterilization effect at 25[…] (diameter, mm)", "setting": "Staphylococcus aureus [1]; [13]", "result": 14, "unit": "mm"},
      {"measurement": "sterilization effect at 37[…] (diameter, mm)", "setting": "Staphylococcus aureus [1]; [13]", "result": 16, "unit": "mm"},
      {"measurement": "sterilization effect at 25[…] (diameter, mm)", "setting": "Staphylococcus aureus [1]; [6]", "result": 18, "unit": "mm"},
      {"measurement": "sterilization effect at 37[…] (diameter, mm)", "setting": "Staphylococcus aureus [1]; [7]", "result": 20, "unit": "mm"},
      {"measurement": "sterilization effect at 25[…] (diameter, mm)", "setting": "Staphylococcus aureus [1]; [14]", "result": 19, "unit": "mm"},
      {"measurement": "sterilization effect at 37[…] (diameter, mm)", "setting": "Staphylococcus aureus [1]; [14]", "result": 18, "unit": "mm"},
      {"measurement": "sterilization effect at 25[…] (diameter, mm)", "setting": "Staphylococcus aureus [1]; [15]", "result": 17, "unit": "mm"},
      {"measurement": "sterilization effect at 37[…] (diameter, mm)", "setting": "Staphylococcus aureus [1]; [15]", "result": 19, "unit": "mm"},
      {"measurement": "sterilization effect at 37[…] (diameter, mm)", "setting": "Staphylococcus aureus [1]; [8]", "result": 5, "unit": "mm"},
      {"measurement": "sterilization effect at 25[…] (diameter, mm)", "setting": "Staphylococcus aureus [1]; [16]", "result": 5, "unit": "mm"},
      {"measurement": "sterilization effect at 37[…] (diameter, mm)", "setting": "Staphylococcus aureus [1]; [16]", "result": 6, "unit": "mm"},
      {"measurement": "sterilization effect at 25[…] (diameter, mm)", "setting": "Staphylococcus aureus [1]; [17]", "result": 8, "unit": "mm"},
      {"measurement": "sterilization effect at 37[…] (diameter, mm)", "setting": "Staphylococcus aureus [1]; [17]", "result": 9, "unit": "mm"},
      {"measurement": "sterilization effect at 25[…] (diameter, mm)", "setting": "Staphylococcus aureus [1]; [9]", "result": 13, "unit": "mm"},
      {"measurement": "sterilization effect at 37[…] (diameter, mm)", "setting": "Staphylococcus aureus [1]; [10]", "result": 16, "unit": "mm"},
      {"measurement": "sterilization effect at 25[…] (diameter, mm)", "setting": "Staphylococcus aureus [1]; [18]", "result": 16, "unit": "mm"},
      {"measurement": "sterilization effect at 37[…] (diameter, mm)", "setting": "Staphylococcus aureus [1]; [18]", "result": 16, "unit": "mm"},
      {"measurement": "sterilization effect at 25[…] (diameter, mm)", "setting": "Staphylococcus aureus [1]; [19]", "result": 18, "unit": "mm"},
      {"measurement": "sterilization effect at 37[…] (diameter, mm)", "setting": "Staphylococcus aureus [1]; [19]", "result": 20, "unit": "mm"},
      {"measurement": "sterilization effect at 25[…] (diameter, mm)", "setting": "Staphylococcus aureus [1]; [20]", "result": 18, "unit": "mm"},
      {"measurement": "sterilization effect at 37[…] (diameter, mm)", "setting": "Staphylococcus aureus [1]; [20]", "result": 19, "unit": "mm"},
      {"measurement": "sterilization effect at 25[…] (diameter, mm)", "setting": "Staphylococcus aureus [1]; [21]", "result": 20, "unit": "mm"},
      {"measurement": "sterilization effect at 37[…] (diameter, mm)", "setting": "Staphylococcus aureus [1]; [21]", "result": 19, "unit": "mm"},
      {"measurement": "sterilization effect at 25[…] (diameter, mm)", "setting": "Staphylococcus aureus [1]; [22]", "result": 20, "unit": "mm"},
      {"measurement": "sterilization effect at 37[…] (diameter, mm)", "setting": "Staphylococcus aureus [1]; [22]", "result": 20, "unit": "mm"}
    ]},
    {"smiles": "[Cl-].[Na+]", "note": "[sodium chloride, reference compound]", "values": [
      {"measurement": "sterilization effect", "setting": "Staphylococcus aureus [1]; [4]", "result": "essentially had no effect"}
    ]},
    {"smiles": "O=S(=O)([O-])[O-].[Na+].[Na+]", "note": "[sulfate sodium, reference compound]", "values": [
      {"measurement": "sterilization effect", "setting": "Staphylococcus aureus [1]; [4]", "result": "essentially had no effect"}
    ]}
  ]
}
